Assay results published in paper PMC10465493, “Osteogenic induction of asiatic acid derivatives in human periodontal ligament stem cells” (Scientific Reports, 2023).
≈ marks a conversion by molar mass, not a printed value. Where two headings read alike, the source gives them in different places. One block for each compound: values may come before it.

Columns and labels:
[1] = Aqueous solubility by gravimetric method; format: physicochemical; settings: thermodynamic from solid, ultrapure water, shaken 24 h, n = 6
Description: Aqueous solubility of AA and its derivatives were screened using a gravimetric method. Briefly, AA and the derivatives were dissolved in an excess amount in ultrapure water, and the samples were shaken at room temperature and 37 °C for 24 h. After that, the samples were centrifuged to separate the undissolved compounds. The specific volume of supernatants was then collected and lyophilised. The residual solid after lyophilisation was weighed using a 7-digit balance (XPR2u, Mettler Toledo, OH, USA), and the maximum solubility in water at the different temperature was calculated based on the volume of the collected solution of the compounds. […]

[2] = Cell viability, PrestoBlue resazurin assay; format: cell-based, human; settings: human, hPDLSCs, 300 nM; for viability at 24 h, 0.3 µM: day 1, general medium
Description: (§1) Stock solutions of AA, 501, 502, 503, and 506 were prepared in DMSO at the concentration of 100 µM, before diluting in culture medium to the desired concentration. Cell viability after exposure to the drugs was investigated using a PrestoBlue™ resazurin assay according to the manufacturer’s protocol. Cells with a density of 60,000 cells/well were plated in 24 well-plates and cultured in a normal growth medium for 24 h. Then the cells were treated with 300 nM AA and solutions of, 501, 502, 503, and 506. After 24-h and 5-day incubation, the cultures were treated with resazurin working solution, and the fluorescence intensity at an emission wavelength of 590 nm was measured with excitation of 560-nm wavelength using a microplate reader (Synergy H1, Biotek multi-mode reader, Winooski, VT, USA). Untreated cells were used as the control, and the experiment was performed on different cell lines of at least five donors.

hPDLSCs [3] = experiment: mRNA expression of osteogenic marker genes by quantitative RT-PCR; format: cell-based, human; settings: for mRNA expression of all markers (BMP2, RUNX2, COL1A1, WNT3A): 100 nM (10 nM for 503)
Description: Cells were seeded in 24 well-plates at a density of 60,000 cells/well and treated with AA or the derivatives at different concentrations. The media was changed every other day to ensure the continuous activities of AA derivatives. For Erk inhibition experiments, cells were pretreated with 2.5 nM Erk inhibitor (cat. No. 328006, Calbiochem, San Diego, CA, USA) for 2 h prior to the treatment of AA derivatives. At each time point, the total RNA was extracted using TRIzol® reagent following the standard protocol, and the RNA content and purity were measured using a microvolume spectrophotometer (NanoDrop™ One, Thermo Fisher Scientific, USA). Then, 1 μg of RNA sample was reverse-transcribed into complementary DNA (cDNA) using Improm II reverse transcription system (Promega, USA). The expression levels of the target genes were detected by real-time polymerase chain reaction using the SYBR green detection system (FastStart Essential DNA Green Master, Roche Diagnostics, Switzerland) on the MiniOpticon™ RT-PCR system (Bio-Rad, USA). The quantitative RT-PCR was carried out using a LightCycler® 96 (Roche Diagnostics, Switzerland). The transcript expression of GAPDH was used as the internal control. The relative gene expression analysis was performed using the CFX Manager software (Bio-Rad, USA). The expression value was normalised using an expression value of cellular housekeeping gene, GAPDH, and the control was considered for each respective day.

hPDLSCs [4] = experiment: Cell viability, PrestoBlue resazurin assay; format: cell-based, human; settings: 300 nM, up to 5 days
Description: as §1

osteoclastogenesis = system: osteoclastogenesis; set-up: method as in PMID 32292339; settings: cited from earlier work
[5] = octanol/water, cited from earlier work
hPDLSCs [6] = experiment: BMP2 protein expression by ELISA; format: cell-based, human; settings: 100 to 300 nM, D1 and D3, general medium
Description: The expression levels of targeted proteins were analysed by a sandwich ELISA assay. Firstly, the cells were lysed, and the amount of protein was analysed using a Bio-Rad BCA protein assay kit (Bio‐Rad Laboratories, USA). Following the standard protocol, the target proteins were analysed using an ELISA kit (R&D Systems, USA).

hPDLSCs [7] = experiment: Alkaline phosphatase (ALP) activity assay; format: cell-based, human; settings: 100, 200, 300 nM, D3, normalised to total cellular protein
Description: At the designated time points, the ALP activity was measured. Cells treated with different concentrations of AA derivatives were collected, washed with PBS, and lysed with alkaline lysis buffer. The cell lysate was incubated with a mixture containing 2 mg/mL p-nitrophenyl phosphate, 0.1 M 2-amino-2-methyl-1-propanol and 2 mM MgCl2. After incubation at 37 °C for 30 min, the reaction was terminated by addition of 50 mM NaOH. The absorbance at 410 nm was measured, and the quantitative data was normalised by the amount of total cellular protein.

hPDLSCs [8] = experiment: Von Kossa and Alizarin red S staining for mineralisation; format: cell-based, human; settings: 300 nM, 14 days, general medium, compared to osteogenic medium (positive control)
Description: In vitro mineralisation was visualised following calcium staining using Von Kossa’s method and Alizarin red S staining according to an established protocol. Briefly, on day 14, the cells were washed and fixed with cold methanol for 10 min before rinsing with deionised water. Von Kossa staining was performed by treating the fixed cells with 5%w/v silver nitrate solution for 30 min. For Alizarin Red S staining, the Alizarin Red S solution (0.5% w/v, pH 4.2) was incubated with the fixed cells for 5 min. The mineralised nodule formation was observed under a phase-contrast microscope (Nikon ECLIPSE Ts2, Nikon, USA). Cells cultured in a normal growth medium were used as the negative control. The cells cultured in an osteogenic medium (DMEM supplemented with […] ascorbic acid, 100 nM dexamethasone, and 10 mM β-glycerophosphate) were regarded as the positive control.

[9] = 37 °C, read-out: Experimental solubility in water at 37 °C (average ± SD)
[10] = room temperature, read-out: Experimental solubility in water at room temperature (average ± SD)
[11] = 300 nM, days 1 and 3, general medium

SMILES: CCCCOC(=O)C12CCC(C)C(C)C1C1=CCC3C4(C)CC(OC(C)=O)C(OC(C)=O)C(C)(COC(C)=O)C4CCC3(C)C1(C)CC2 (stereo not drawn) [compound 502]
solubility at 24 h [1, 9]: 14.5 ± 4.7 µg/mL (≈ 21.6 µM)
solubility at 24 h [1, 10]: 10 ± 1.5 µg/mL (≈ 14.9 µM)

SMILES: C[C@H]1[C@H](C)CC[C@]2(C(=O)O)CC[C@]3(C)C(=CC[C@@H]4[C@@]5(C)C[C@@H](O)[C@H](O)[C@@](C)(CO)[C@@H]5CC[C@]43C)[C@H]12 [AA, Asiatic acid]
solubility at 24 h [1, 9]: 723 ± 184 µg/mL (≈ 1480 µM)
solubility at 24 h [1, 10]: 541 ± 76.8 µg/mL (≈ 1110 µM)
viability at 24 h, 0.3 µM [2]: > 90%
Toxicity to hPDLSCs (hPDLSCs [4]): no significant toxicity
mRNA expression of all markers (BMP2, RUNX2, COL1A1, WNT3A) (hPDLSCs [3]; 24 h, normal growth medium): no observable change
Concentration required to inhibit osteoclastogenesis or bone loss (osteoclastogenesis): up to 20 µM
Theoretical log P ([5]; ref 33): 5.8
Theoretical log P ([5]; ref 38, 39): 5.7

SMILES: CC(=O)OC[C@@]1(C)C2CC[C@]3(C)C(CC=C4[C@@H]5[C@@H](C)[C@H](C)CC[C@]5(C(=O)NCCCN(C)C)CC[C@]43C)[C@@]2(C)C[C@@H](OC(C)=O)[C@@H]1OC(C)=O (stereo partly drawn) [compound 503]
solubility at 24 h [1, 9]: 331 ± 82.6 µg/mL (≈ 473 µM)
solubility at 24 h [1, 10]: 164 ± 28.2 µg/mL (≈ 235 µM)
viability at 24 h, 0.3 µM [2]: < 40%
mRNA expression of all markers (BMP2, RUNX2, COL1A1, WNT3A) (hPDLSCs [3]; 24 h, normal growth medium): no observable change

Second part, led by results:

solubility at 24 h [1, 9]: 654 ± 95.5 µg/mL (≈ 1060 µM)
solubility at 24 h [1, 10]: 272 ± 31.5 µg/mL (≈ 442 µM)
SMILES: CC(=O)OCC1(C)C(OC(C)=O)C(OC(C)=O)CC2(C)C1CCC1(C)C2CC=C2C3C(C)C(C)CCC3(C(=O)O)CCC21C (stereo not drawn) [compound 501]
viability at 5 days, 0.3 µM ([2]; day 5, general medium): < 75%
mRNA expression of all markers (BMP2, RUNX2, COL1A1, WNT3A) (hPDLSCs [3]; 24 h, normal growth medium): no observable change

solubility at 24 h [1, 9]: 852 ± 85.6 µg/mL (≈ 1490 µM)
solubility at 24 h [1, 10]: 810 ± 36 µg/mL (≈ 1410 µM)
ALP activity (hPDLSCs [7]): dose-dependent increase
SMILES: C[C@H]1[C@H](C)CC[C@]2(C(=O)NCCCN(C)C)CC[C@]3(C)C(=CCC4[C@@]5(C)C[C@@H](O)[C@H](O)[C@@](C)(CO)C5CC[C@]43C)[C@H]12 (stereo partly drawn) [compound 506]
Toxicity to hPDLSCs (hPDLSCs [4]): no significant toxicity
BMP2 mRNA expression (hPDLSCs [3]; 100 nM, 24 h, normal growth medium): high expression
WNT3A expression with Erk inhibitor (hPDLSCs [3]; 300 nM 506, pretreated with Erk inhibitor, general medium): inhibited
BMP2 expression (hPDLSCs [3]; 300 nM, day 1): High expression
BMP2 expression (hPDLSCs [3]; 300 nM, day 3): declining to a control level
WNT3A transcript level (hPDLSCs [3]; 300 nM, day 3): elevated transcript level
COL1A1 expression level (hPDLSCs [3]; [11]): no observable change
RUNX2 expression level (hPDLSCs [3]; [11]): no observable change
ALP expression level compared to control (hPDLSCs [3]; 300 nM, general medium): enhanced
BMP2 expression level compared to control (hPDLSCs [3]; 300 nM, general medium): enhanced
IBSP expression level compared to control (hPDLSCs [3]; 300 nM, general medium): enhanced
OSX expression level compared to control (hPDLSCs [3]; 300 nM, general medium): enhanced
BMP2 gene expression (hPDLSCs [3]; 100 to 300 nM, first day after exposure, general medium): elevated transcript level at the lower concentrations (100 and 200 nM)
BMP2 protein expression (hPDLSCs [6]): dose-dependent increase
Tissue mineralisation (calcium deposition) (hPDLSCs [8]): comparable to those same cells cultured in an osteogenic medium
